Where two headings read alike, the source gives them in different places.
Assays:
[1] = human, intravenous route; cited from earlier work
[2] = 11,195 cases of suspected acetaminophen overdose reviewed; cited from earlier work
[3] = mouse, cited from earlier work
[4] = rats, intraperitoneal route; cited from earlier work
[5] = Chronic toxicity in rats (NOEL); format: in vivo; details: oral route, 60 kg
[6] = cited from earlier work
[7] = chronic toxicity in rats, for 12 months; cited from earlier work
[8] = in vivo, iv
Glutathione (GSH) = details: cited from earlier work

CC(=O)N[C@@H](CS)C(=O)O [NAC, N-acetylcysteine]
Toxic Dose Low (TDLO) [1]: 150 to 200 mg/kg
effectiveness of 72-hour oral regimen [2]: as effective as the 24-hour regimen
Toxic Dose Low (TDLO) ([3]; intraperitoneal route): 408 to 450 mg/kg
Toxic Dose Low (TDLO) ([3]; oral route): 300 mg/kg
Toxic Dose Low (TDLO) [4]: 150 to 200 mg/kg
1200 mg dose (20 mg/kg) referred to NOEL in rats [5]: 50 times less
plasma half-life ([6]; after oral administration): 6.3 h
time at which maximum plasma concentration is reached ([6]; after oral administration): 2 to 3 h
NAC in plasma or bronchoalveolar lavage fluid ([6]; following oral administration for 4-14 days): cannot be detected
bioavailability ([6]; oral, unchanged molecule): about 10%
no observed effect level (NOEL) dose [7]: about 1000 mg/kg/day
1200 mg dose (20 mg/kg) referred to TDLO in human [8]: about 10 times less
cysteine and GSH levels in plasma and lung (Glutathione (GSH); NAC 600 mg once daily): increased transiently
plasma concentration of Glutathione (GSH) (Glutathione (GSH); patients with COPD, 600 mg once daily): unchanged
plasma GSH levels (Glutathione (GSH); patients with COPD, 600 mg three times daily): increased

Source: patent publication EP2574333B1, “N-acetylcysteine effervescent tablet and its therapeutical applications” (Friulchem SpA, priority 2011, dated 2013)
